Molecules are shown by their SMILES.

The data set is described as follows: gradient 5% acetonitrile 3 min, to 50% in 2 min, to 85% in 15 min, held 3 min, 100 µL/min. Conditions: column: Zorbax Extend-C18 2.1 x 50 mm; eluents: water / acetonitrile, 0.1% formic acid. The method in brief: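 Using water and acetonitrile that each contained 0.1% formic acid, mixtures of ~100 pure standards were separated at 100 μL/min on a Zorbax Extend-C18 column (2.1 × 50 mm, 1.8 μm). The HPLC fed a quadrupole time-of-flight mass spectrometer working in positive and negative ionization mode, with dead and dwell volumes of 40 μL and 900 μL. Data were acquired over 3 months. Retention time was read from computationally picked adduct peaks after manual inspection of each.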
As for `COc1ccc(N2CCN(c3nccc(-n4nc(C)cc4C)n3)CC2)cc1`, the RP-LC retention time was 956 s.

`CCC(CC)C(=O)Nc1nc(-c2ccc3c(c2)N(CC)C(=O)CO3)c(C)s1`: the RP-LC retention time was 1270 s.

As for `CC1CCN(C(=O)C2=NN(Cc3cccc(F)c3)c3ccccc3S2(=O)=O)CC1`, the RP-LC retention time was 1010 s.

The compound `Cc1cc(S(=O)(=O)N2CCCC2c2nc(-c3ccc(Cl)cc3)no2)ccc1F` (stereo not given) showed an RP-LC retention time of 1240 s.

Turning to `COc1cccc(-c2c(C(=O)O)nnn2Cc2ccccc2F)c1`, the RP-LC retention time came to 776 s.

In turn, `O=C1/C(=C/c2ccccc2)CN(C(=O)/C=C/c2ccccc2)C/C1=C\c1ccccc1` returned an RP-LC retention time of 1140 s.

`Cc1nc(-c2ccccc2F)sc1C(=O)N1CCCC1` registered an RP-LC retention time of 880 s.

Compound `O=c1n(Cc2cccc(F)c2)nc2c(S(=O)(=O)N3CCCCC3)cccn12` yielded an RP-LC retention time of 872 s.

In turn, `CCn1cc(-c2nc(C)c(C(=O)NCc3ccccc3C)s2)c2cccnc21` yielded an RP-LC retention time of 995 s.

For the compound `CCCN1CCN(c2cc(C(=O)O)c3cc(NS(=O)(=O)c4cc(F)ccc4C)ccc3n2)CC1`, the RP-LC retention time was 627 s.

`Clc1ccccc1-c1noc(Cc2nc(-c3ccc4c(c3)OCO4)cs2)n1` displayed an RP-LC retention time of 1140 s.

In turn, `O=[n+]1c2c(n([O-])c3ccccc31)-c1cccc3cccc-2c13` showed an RP-LC retention time of 767 s.

Compound `CN(Cc1ccccc1)C(=O)C(=O)c1c[nH]c2ccccc12` yielded an RP-LC retention time of 800 s.

Compound `CC(C)c1ccc(NC(=O)C2CCCN(c3ncnc4c3oc3ccccc34)C2)cc1` (stereo not given) showed an RP-LC retention time of 976 s.

For the compound `Cc1ccc(Nc2c(-c3ccc(Cl)cc3)nc3ncccn23)cc1C`, the RP-LC retention time worked out at 942 s.

Consider `CCn1cc(-c2nc(CC(=O)NCc3ccco3)cs2)c2cccnc21`, for which the RP-LC retention time was determined as 793 s.

`COc1ccc(CCNC(=O)C2CCc3nc(N4CCC(C)CC4)ncc3C2)cc1OC` (stereo not given) had an RP-LC retention time of 757 s.

`Cc1ccc(-c2noc(CCn3nc(-c4ccc(C)c(C)c4)ccc3=O)n2)cc1` returned an RP-LC retention time of 1150 s.

Take `O=C(C1CCN(Cc2cc3ccccc3n2Cc2ccccc2)CC1)N1CCOCC1`: the RP-LC retention time came to 683 s.

`COc1ccccc1N1CCN(c2cc(SCC(=O)Nc3cc(C)cc(C)c3)ncn2)CC1` came in with an RP-LC retention time of 1070 s.

`O=C(c1ccc(Oc2ccccc2)cc1)N1CC(c2nc3ccccc3[nH]2)C1` yielded an RP-LC retention time of 623 s.

`Cc1nc(-c2cc(S(=O)(=O)Nc3ccc(F)cc3Cl)c(C)s2)cs1` had an RP-LC retention time of 1050 s.

In turn, `O=C(NCCc1ccccc1)C(=O)NCCc1cccs1` registered an RP-LC retention time of 832 s.

As for `O=c1onc2cnc3ccccc3n12`, the RP-LC retention time is 822 s.

For `Cc1cc(C)c2c(N3CCSCC3)nc(C(=O)NCC3CCCO3)nc2n1` (stereo not given), the RP-LC retention time worked out at 624 s.

In the case of `COC(=O)C1=CC(=O)N2CCN=C2S1`, the RP-LC retention time amounted to 691 s.

The compound `COc1ccc(-c2nnc(-c3ccc(OC)c(S(=O)(=O)N4CCOCC4)c3)o2)cc1OC` had an RP-LC retention time of 768 s.

`Cc1c(C(=O)NCCOc2cccc(C(F)(F)F)c2)cccc1[N+](=O)[O-]`: the RP-LC retention time came out at 893 s.

As for `O=C(Cn1c(-c2nnco2)cc2ccccc21)NCC1CCCO1` (stereo not given), the RP-LC retention time is 668 s.

In the case of `CC(C)Cn1cc(CCNC(=O)C2CCCCC2)c2cccnc21`, the RP-LC retention time stood at 817 s.

Compound `O=C(CCc1csc(NC(=O)c2ccccc2)n1)Nc1nc2ccc(Cl)cc2s1` displayed an RP-LC retention time of 970 s.

In turn, `COc1ccc(-n2nc(SCC(=O)Nc3ccc(F)c(F)c3)ccc2=O)cc1` displayed an RP-LC retention time of 772 s.

In the case of `COc1ccc(O)c(CNC2CCN(c3ccc(C(=O)NC4CC4)cn3)C2)c1` (stereo not given), the RP-LC retention time came to 546 s.

`Cc1ccc(-c2ccc(N3CCCC(C(=O)NCc4ccc5c(c4)OCO5)C3)nn2)cc1` (stereo not given) came in with an RP-LC retention time of 732 s.

`O=C(Nc1ccc(F)cc1F)c1cc2n(n1)CCCC2` displayed an RP-LC retention time of 912 s.

`O=S(=O)(c1ccccc1)N1CC[C@@H]2COCCN(Cc3ccccc3)[C@@H]2C1` came in with an RP-LC retention time of 675 s.

With `C=CCN(CC=C)C(=O)C1CCN(C(=O)c2cccc(F)c2)CC1`, the RP-LC retention time stood at 1250 s.

`COc1ccc(CN(Cc2cc(=O)n3cccc(C)c3n2)CC(C)C)cc1OC` had an RP-LC retention time of 635 s.

`CCCNc1nc(-c2ccccc2Cl)nc2ccccc12` came in with an RP-LC retention time of 702 s.

`Fc1cccc(-c2noc(-c3nc(-c4ccncc4)no3)n2)c1`: the RP-LC retention time came to 951 s.

`COc1cccc(CC(=O)Nc2nnc(SCc3nnc(-c4ccccc4C)o3)s2)c1` yielded an RP-LC retention time of 922 s.

In turn, `CCOC(=O)C1CCCN(C(=O)CCC(=O)N2CCCn3nc(C)cc32)C1` (stereo not given) showed an RP-LC retention time of 647 s.

`O=C(c1cc(C2CC2)[nH]n1)N1CCn2c(nnc2-c2ccccc2)C1`: the RP-LC retention time came out at 640 s.

`O=C(NCc1ccc(F)cc1F)c1sc2ncccc2c1-n1cccc1`: the RP-LC retention time amounted to 1020 s.

Take `COc1cc(OC)c(NC(=O)Cn2ncc3c(c2=O)N(C)C(=O)CS3)cc1Cl`: the RP-LC retention time stood at 695 s.

The compound `COc1ccc(-c2nnc3n2CCN(Cc2cccc(C#N)c2)C3)cc1` yielded an RP-LC retention time of 667 s.

With `Cc1ccc(CNC(=O)C2CCN(c3ncccc3S(=O)(=O)N3CCCCC3)CC2)cc1`, the RP-LC retention time was determined as 960 s.

The compound `Cc1ncc2c(n1)C[C@@H]1CC[C@H]2N1C(=O)NCCc1ccccc1` showed an RP-LC retention time of 647 s.

With `COc1ccc(S(=O)(=O)N2CCCC(c3nnnn3-c3ccccc3)C2)cc1` (stereo not given), the RP-LC retention time is 905 s.

Compound `CC(C)(C)c1csc(-c2csc(S(=O)(=O)NCc3cccs3)c2)n1` gave an RP-LC retention time of 1180 s.

As for `COc1ccccc1N1CCN(S(=O)(=O)c2cc3n(c2)CCCNC3=O)CC1`, the RP-LC retention time turned out to be 696 s.

`Cc1noc(C2CN(CC(=O)N3CCN(c4ccc(Cl)cc4)CC3)C2)n1` had an RP-LC retention time of 590 s.

On to `Cn1c(-c2cccs2)c(CNC(=O)Nc2ccc3c(c2)OCO3)c2ccccc21`, for which the RP-LC retention time stood at 1010 s.

Turning to `COc1ccc(N2CC(c3noc(-c4cccc(Cl)c4)n3)CC2=O)cc1OC` (stereo not given), the RP-LC retention time came out at 944 s.

`CC(CCc1ccccc1)NC(=O)Cc1nnc(-c2ccncc2)o1` (stereo not given) registered an RP-LC retention time of 744 s.

Compound `O=C(Cc1c[nH]c2ccccc12)NC1CCN(c2ccc(=O)[nH]n2)C1` (stereo not given) displayed an RP-LC retention time of 600 s.

The compound `Nc1c(C(=O)NCc2ccc3c(c2)OCO3)nsc1C(=O)N1CCN(c2ncccn2)CC1` gave an RP-LC retention time of 850 s.

Compound `Cc1ccc(-c2nnc(-c3ccccc3Cl)o2)cc1S(=O)(=O)N1CCCCC1` gave an RP-LC retention time of 1200 s.

In turn, `Cc1sc(NC(=O)c2ccco2)c(CN2CCN(c3ccc(F)cc3)CC2)c1C` registered an RP-LC retention time of 691 s.

The compound `Cc1nn(CC(=O)O)c(=O)c2nc(-c3ccccc3)sc12` displayed an RP-LC retention time of 701 s.

For the compound `Cc1ccc(-c2cn3cccnc3n2)cc1NC(=O)c1ccc(C(C)(C)C)cc1`, the RP-LC retention time worked out at 816 s.

For the compound `Cc1cc(N2CCCCC2)nc(NCCNS(=O)(=O)N(C)C)n1`, the RP-LC retention time amounted to 570 s.

On to `O=C(NC1CC1)C1CCN(S(=O)(=O)Cc2ccc(F)cc2)CC1`, for which the RP-LC retention time came to 929 s.

The compound `Cc1cc(C)c(C)c(S(=O)(=O)N2CCc3nc[nH]c3C2)c1C` yielded an RP-LC retention time of 666 s.

In turn, `O=C(Cn1ccn(-c2ccc3c(c2)OCCO3)c(=O)c1=O)Nc1ccccc1F` had an RP-LC retention time of 655 s.

Take `CCN1C(=O)C2(CCN(S(=O)(=O)c3cc(F)ccc3C)CC2)c2ccccc21`: the RP-LC retention time was 1130 s.

Compound `COc1ccccc1N1CCN(C(=O)c2cc(NC(=O)C(C)C)cc3nc(C)ccc23)CC1` showed an RP-LC retention time of 666 s.

`O=C(Nc1nc(-c2ccc3ccccc3c2)cs1)c1cccc(Cn2cc(Cl)cn2)c1` came in with an RP-LC retention time of 1140 s.

For the compound `O=C(c1cn(-c2cc(N3CCSCC3)ncn2)cn1)N1CCc2ccccc21`, the RP-LC retention time was found to be 952 s.

`CCCCc1ccc(N2C(=O)C3N=NN(Cc4nc(-c5ccc(Cl)cc5)no4)C3C2=O)cc1` (stereo not given) displayed an RP-LC retention time of 1280 s.

Compound `Nc1nc(NCc2ccccc2Cl)ncc1[N+](=O)[O-]` came in with an RP-LC retention time of 778 s.

In turn, `Cc1cc(C(=O)NCc2ccco2)c2c(C)nn(-c3ccccc3Cl)c2n1` came in with an RP-LC retention time of 860 s.

Consider `Cn1cnnc1C1CCCCN1C(=O)c1ccc2c(c1)OCO2` (stereo not given), for which the RP-LC retention time turned out to be 618 s.

For the compound `Cc1ccccc1Cn1c(CN2CCC(C(=O)NC3CCCCCC3)CC2)cc2ccccc21`, the RP-LC retention time was 885 s.

Consider `CCc1cc(=O)n(Cc2ccccc2C#N)c(N2CCCC2)n1`, for which the RP-LC retention time was determined as 696 s.

`CC(=O)c1cccc(NC(=O)COc2ccc(C(C)(C)C)cc2)c1`: the RP-LC retention time turned out to be 1010 s.

With `COC(=O)c1ccccc1Nc1c(-c2ccc(Cl)cc2)nc2cnccn12`, the RP-LC retention time came out at 1130 s.

`COc1ccc(-c2nnc(-c3ccc(C)c(S(=O)(=O)N4CCN(C)CC4)c3)o2)cc1OC`: the RP-LC retention time came to 646 s.

The compound `CCOC(=O)c1cc(C2CC2)nc2c1c(=O)n(Cc1ccc(OC)cc1)c(=O)n2C` returned an RP-LC retention time of 1170 s.

As for `CCOCCCNC(=O)CCc1nnc2ccc(-c3ccc(C)c(C)c3)nn12`, the RP-LC retention time is 754 s.

The values are drawn from the METLIN SMRT retention time set (Domingo-Almenara et al. 2019).
